Reference: PMC5946847, “Synthesis and biological evaluation of aryl-oxadiazoles as inhibitors of Mycobacterium tuberculosis” (Bioorganic & Medicinal Chemistry Letters, 2018)
In brackets after ≈: the same amount, converted by molar mass. Like-named read-outs stand apart in the source and are kept apart here.

Key:
[1] = Mouse microsomal stability; type: in vitro ADME; conditions: for Mouse microsome (% metabolized in 30 min): 2 μM
Method: 4. Method for microsomal stability:
To determine microsomal turnover, test compounds were incubated (2 μM) with liver microsomes in the presence of NADPH, and loss of parent molecule was measured by LC-MS after 30 min.

physchem = conditions: pH 7.4
[2] = test system: M. tuberculosis H37Rv expressing DsRed; assay: microbe, parasite or virus in culture; type: cell-based; conditions: Mycobacterium tuberculosis, average ± standard deviation for at least 2 runs, read-out: 7H9-Ty-BT MIC
[3] = test system: M. tuberculosis H37Rv expressing DsRed; assay: microbe, parasite or virus in culture; type: cell-based; conditions: Mycobacterium tuberculosis, read-out: 7H9-Tw-OADC MIC
Vero cells (ATCC CCL81) = assay: Cytotoxicity in Vero cells (CellTiter-Glo); type: cell-based; conditions: Chlorocebus sabaeus, 48 h, 2 days
Method: Vero cells (ATCC® CCL81) were grown in DMEM, high glucose, GlutaMAX™ (Invitrogen), 10% FBS, 50 units/mL penicillin, and 50 µg/mL streptomycin, seeded as 1200 cells per well in 384-well plates and incubated for 24 h at 37 °C with 5% CO2. Compounds were added as a 3-fold serial dilution series and cells incubated for 2 days at 37 °C with 5% CO2. Viability was measured using CellTiter-Glo® Reagent (Promega).

| SMILES | CLint scaled at 2 μM ([1]; mouse, microsomes) [mL/min/kg] | Mouse microsome (% metabolized in 30 min) ([1]; mouse, microsomes, 0.5 h) [%] | solubility (physchem) [µg/mL] | Mouse microsome (% metabolized in 30 min) ([1]; NADPH, 30 min) [%] | CLint scaled at 2 μM ([1]; mouse, microsomes, Table 1, read-out: Mouse microsome unbound intrinsic clearance) [mL/min/kg] | MIC [2] [µM] | MIC [3] [µM] | IC50 (Vero cells (ATCC CCL81)) [µM] |
| --- | --- | --- | --- | --- | --- | --- | --- | --- |
| c1coc(-c2nnc(SCc3cccc4ccccc34)o2)c1 [Compound 4] | 1680 | 95 | < 1 | – | – | – | – | – |
| c1csc(-c2nnc(COc3ccc4c(c3)OCO4)o2)c1 [Compound 5] | – | – | – | 76 | 332 | – | – | – |
| c1coc(-c2nnc(Cc3cccc4ccccc34)o2)c1 [Compound 6] | – | 100 | < 1 | – | – | 1.1 ± 0.9 (≈ 0.304 µg/mL) | > 20 | > 100 |
| c1csc(-c2nnc(Cc3ccc4ccccc4c3)o2)c1 [Compound 7] | – | 100 | < 1 | – | – | 5.7 ± 0.2 (≈ 1.67 µg/mL) | > 20 | > 100 |
| c1csc(-c2nnc(Cc3cccc4c3OCCO4)o2)c1 [Compound 8] | – | 99 | 77 (≈ 256 µM) | – | – | 0.8 ± 0.2 (≈ 0.24 µg/mL) | > 20 | > 100 |
| c1ccc(Cc2nnc(-c3cccs3)o2)cc1 [Compound 9] | – | 99 | 31 (≈ 128 µM) | – | – | 1.1 ± 0.2 (≈ 0.267 µg/mL) | > 20 | 79 |
| CN(Cc1nnc(-c2ccco2)s1)Cc1c(F)cccc1Cl [Compound 10] | – | 99 | 20 (≈ 59.2 µM) | – | – | 3.2 ± 0.5 (≈ 1.08 µg/mL) | > 20 | 75 |
| CN(Cc1nnc(-c2cccs2)o1)Cc1c(F)cccc1Cl [Compound 11] | – | 100 | 120 (≈ 355 µM) | – | – | 0.6 ± 0.2 (≈ 0.203 µg/mL) | > 20 | > 100 |
| CN(Cc1nnc(-c2ccccc2)o1)Cc1c(F)cccc1Cl [Compound 12] | – | 100 | 78 (≈ 235 µM) | – | – | 0.4 ± 0.2 (≈ 0.133 µg/mL) | > 20 | > 100 |
| CN(Cc1ccccc1)Cc1nnc(-c2cccs2)o1 [Compound 13] | – | 98 | 420 (≈ 1470 µM) | – | – | 0.5 ± 0.1 (≈ 0.143 µg/mL) | > 20 | > 100 |
| CN(Cc1ccccc1)Cc1nnc(-c2ccco2)o1 [Compound 14] | – | 95 | 400 (≈ 1490 µM) | – | – | 0.6 ± 0.2 (≈ 0.162 µg/mL) | > 20 | > 100 |
| CN(Cc1nnc(-c2ccco2)o1)Cc1ccccc1Cl [Compound 15] | – | 100 | 270 (≈ 889 µM) | – | – | 0.6 ± 0.2 (≈ 0.182 µg/mL) | > 20 | 98 |
| CN(Cc1ccc(F)cc1)Cc1nnc(-c2ccccc2)o1 [Compound 16] | – | – | – | – | – | 0.9 ± 0.03 (≈ 0.268 µg/mL) | > 20 | 97 |
| CN(Cc1ccc(C(F)(F)F)cc1)Cc1nnc(-c2cccs2)o1 [Compound 17] | – | 98 | 22 (≈ 62.3 µM) | – | – | 6.8 ± 2.4 (≈ 2.4 µg/mL) | > 20 | 87 |
| CN(Cc1ccc(C(F)(F)F)cc1)Cc1nnc(-c2ccccc2)o1 [Compound 18] | – | 99 | 9 (≈ 25.9 µM) | – | – | 10.8 ± 3.3 (≈ 3.75 µg/mL) | > 20 | 80 |
| CN(Cc1nnc(-c2ccco2)o1)CC1CCCCC1 [Compound 19] | – | 100 | 41 (≈ 149 µM) | – | – | 0.7 ± 0.5 (≈ 0.193 µg/mL) | > 20 | 90 |
| Fc1cccc(Cl)c1CNCc1nnc(-c2ccco2)o1 [Compound 20] | – | 99 | 180 (≈ 585 µM) | – | – | 5.5 ± 0.4 (≈ 1.69 µg/mL) | > 20 | > 100 |

| SMILES | CLint scaled at 2 μM ([1]; mouse, microsomes) [mL/min/kg] | Mouse microsome (% metabolized in 30 min) ([1]; mouse, microsomes, 0.5 h) [%] | solubility (physchem) [µg/mL] | Mouse microsome (% metabolized in 30 min) ([1]; NADPH, 30 min) [%] | CLint scaled at 2 μM ([1]; mouse, microsomes, Table 1, read-out: Mouse microsome unbound intrinsic clearance) [mL/min/kg] | MIC [2] [µM] | MIC [3] [µM] | IC50 (Vero cells (ATCC CCL81)) [µM] |
| --- | --- | --- | --- | --- | --- | --- | --- | --- |
| Fc1cccc(Cl)c1COCc1nnc(-c2ccco2)o1 [Compound 21] | – | 100 | 150 (≈ 486 µM) | – | – | 6 ± 0.4 (≈ 1.85 µg/mL) | > 20 | > 100 |
| CN(Cc1nnc(-c2ccco2)o1)C(=O)c1c(F)cccc1Cl [Compound 22] | – | 95 | 640 (≈ 1910 µM) | – | – | > 20 | > 20 | > 100 |
| CN(CCc1c(F)cccc1Cl)c1nnc(-c2ccco2)o1 [Compound 23] | – | 99 | 7 (≈ 21.8 µM) | – | – | 4 ± 0.6 (≈ 1.29 µg/mL) | > 20 | 93 |
| c1csc(-c2nnc(CN3CCCc4ccccc43)o2)c1 [Compound 24] | – | 97 | 5 (≈ 16.8 µM) | – | – | 0.8 ± 0.5 (≈ 0.238 µg/mL) | > 20 | > 100 |
| c1ccc(-c2nnc(CN3CCCc4ccccc43)o2)cc1 [Compound 25] | – | 100 | 3 (≈ 10.3 µM) | – | – | 1.7 ± 0.1 (≈ 0.495 µg/mL) | > 20 | > 100 |
| Fc1ccc(-c2nnc(CN3CCCc4ccccc43)o2)cc1 [Compound 26] | – | 100 | < 2 | – | – | 0.2 ± 0.1 (≈ 0.0619 µg/mL) | > 20 | > 100 |
| FC(F)(F)c1ccc(-c2nnc(CN3CCCc4ccccc43)o2)cc1 [Compound 27] | – | 87 | < 2 | – | – | 0.7 ± 0.3 (≈ 0.252 µg/mL) | > 20 | > 100 |
| c1csc(-c2nnc(CN3CCc4ccccc4C3)o2)c1 [Compound 28] | – | 99 | 54 (≈ 182 µM) | – | – | 3.7 ± 0.3 (≈ 1.1 µg/mL) | > 20 | > 100 |
| c1ccc(-c2nnc(CN3CCc4ccccc4C3)o2)cc1 [Compound 29] | – | 99 | 51 (≈ 175 µM) | – | – | 7.7 ± 0.8 (≈ 2.24 µg/mL) | > 20 | > 100 |
| Fc1ccc(-c2nnc(CN3CCc4ccccc4C3)o2)cc1 [Compound 30] | – | 80 | 40 (≈ 129 µM) | – | – | 4.7 ± 1.3 (≈ 1.45 µg/mL) | > 20 | > 100 |
| FC(F)(F)c1ccc(-c2nnc(CN3CCc4ccccc4C3)o2)cc1 [Compound 31] | – | – | < 2 | – | – | > 20 | > 20 | > 100 |
| c1csc(-c2nnc(CN3CCOc4ccccc43)o2)c1 [Compound 32] | – | 99 | 33 (≈ 110 µM) | – | – | 1.8 ± 0.6 (≈ 0.539 µg/mL) | > 20 | > 100 |
| c1ccc(-c2nnc(CN3CCOc4ccccc43)o2)cc1 [Compound 33] | – | 99 | 28 (≈ 95.5 µM) | – | – | 2.8 ± 1.7 (≈ 0.821 µg/mL) | > 20 | > 100 |
| Fc1ccc(-c2nnc(CN3CCOc4ccccc43)o2)cc1 [Compound 34] | – | 98 | < 2 | – | – | 1.8 ± 0.4 (≈ 0.56 µg/mL) | > 20 | > 100 |
| FC(F)(F)c1ccc(-c2nnc(CN3CCOc4ccccc43)o2)cc1 [Compound 35] | – | 95 | < 2 | – | – | 8.3 ± 1.7 (≈ 3 µg/mL) | > 20 | 85 |
| c1csc(-c2nnc(CN3CCc4ccccc43)o2)c1 [Compound 36] | – | 99 | 38 (≈ 134 µM) | – | – | 2.1 ± 0.1 (≈ 0.595 µg/mL) | > 20 | > 100 |
| c1ccc(-c2nnc(CN3CCc4ccccc43)o2)cc1 [Compound 37] | – | 99 | 21 (≈ 75.7 µM) | – | – | 2.3 ± 0.9 (≈ 0.638 µg/mL) | > 20 | > 100 |
